Test results taken from article PMC4624270 (Journal of the American Chemical Society, 2015).

Biological target: PikDH2 (PikKR2-DH2 didomain) (Streptomyces venezuelae, UniProt Q9ZGI5)
Assay: time-dependent inactivation, Kitz-Wilson plot
Format: biochemical
Conditions: read-out: KI; covalent; mechanism-based irreversible inhibitor; substrate 2a; 10 to 40 μM inhibitor

Chain of PikDH2 (PikKR2-DH2 didomain) (Q9ZGI5 3579-4365): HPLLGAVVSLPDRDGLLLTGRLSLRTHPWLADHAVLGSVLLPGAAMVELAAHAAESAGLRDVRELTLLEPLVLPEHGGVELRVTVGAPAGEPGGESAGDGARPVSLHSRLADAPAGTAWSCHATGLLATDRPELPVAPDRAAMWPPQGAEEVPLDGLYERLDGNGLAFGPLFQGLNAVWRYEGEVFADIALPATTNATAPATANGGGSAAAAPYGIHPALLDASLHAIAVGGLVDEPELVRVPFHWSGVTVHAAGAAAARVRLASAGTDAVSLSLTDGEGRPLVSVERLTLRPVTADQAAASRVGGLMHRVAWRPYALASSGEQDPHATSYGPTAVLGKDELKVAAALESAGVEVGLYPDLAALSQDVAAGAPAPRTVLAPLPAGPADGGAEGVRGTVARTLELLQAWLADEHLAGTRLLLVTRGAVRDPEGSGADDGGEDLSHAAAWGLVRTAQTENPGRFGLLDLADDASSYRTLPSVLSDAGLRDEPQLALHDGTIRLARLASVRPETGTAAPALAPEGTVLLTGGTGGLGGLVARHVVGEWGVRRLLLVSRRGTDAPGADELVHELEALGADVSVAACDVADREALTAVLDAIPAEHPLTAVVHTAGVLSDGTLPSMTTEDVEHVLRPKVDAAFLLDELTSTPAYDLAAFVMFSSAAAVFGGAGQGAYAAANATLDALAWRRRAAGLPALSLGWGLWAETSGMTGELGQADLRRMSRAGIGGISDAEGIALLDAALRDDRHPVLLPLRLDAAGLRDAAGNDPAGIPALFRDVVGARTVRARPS

In the case of `CCCCCCC#CCC(=O)SCCNC(C)=O` [compound 6, 3-Decynoyl-N-acetylcysteamine], the KI (inactivation) is reported as 156 ± 34 µM.
